Experimental data from PubChem BioAssay (NCI).
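Where inhibition never reached the appropriate level, the endpoint shown equals the highest concentration tested. Otherwise, values were interpolated linearly from a five-concentration, 48-hour dose response in 96-well plates. Abbreviation: GI50, concentration required for 50% inhibition of growth. The concentration for full growth arrest is given as TGI.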

How the values were obtained:
Assay in all cases: NCI anticancer screen, dose series, 48 h
HCT-15 colon = system: HCT-15 colon
HL-60(TB) leukemia = system: HL-60(TB) leukemia
M14 melanoma = system: M14 melanoma
MDA-MB-231 breast = system: MDA-MB-231 breast
OVCAR-4 ovarian = system: OVCAR-4 ovarian
SNB-19 CNS = system: SNB-19 CNS
SNB-75 CNS = system: SNB-75 CNS
T-47D breast = system: T-47D breast
U251 CNS = system: U251 CNS
COLO 205 colon = system: COLO 205 colon

SMILES	GI50 (HCT-15 colon) [µM]	TGI (HCT-15 colon) [µM]	GI50 (HL-60(TB) leukemia) [µM]	TGI (HL-60(TB) leukemia) [µM]	GI50 (M14 melanoma) [µM]	TGI (M14 melanoma) [µM]	GI50 (MDA-MB-231 breast) [µM]	TGI (MDA-MB-231 breast) [µM]	GI50 (OVCAR-4 ovarian) [µM]	TGI (OVCAR-4 ovarian) [µM]	GI50 (SNB-19 CNS) [µM]	TGI (SNB-19 CNS) [µM]	GI50 (SNB-75 CNS) [µM]	TGI (SNB-75 CNS) [µM]	GI50 (T-47D breast) [µM]	TGI (T-47D breast) [µM]	GI50 (U251 CNS) [µM]	TGI (U251 CNS) [µM]	TGI (COLO 205 colon) [µM]	GI50 (COLO 205 colon) [µM]
C=CCn1c(C)nc2ccc(Nc3nc(Nc4ccc(F)cc4)nc4ccccc34)cc21	2.84	10.4	4.95	23.3	3.26	14.2	2.37	8.24	2.06	5.81	9	23.8	1.51	3.37	1.7	4.23	3.15	14.9	–	–
CC(C)CCC[C@@H](C)[C@H]1CC[C@H]2[C@@H]3CC[C@H]4C[C@@H](CCC=C(c5cc(Cl)c(O)c(C(=O)O)c5)c5cc(Cl)c(O)c(C(=O)O)c5)CC[C@]4(C)[C@H]3CC[C@]12C	–	> 100	–	> 100	–	> 100	–	> 100	–	> 100	–	> 100	–	> 100	–	> 100	–	> 100	> 100	–
C=CCNc1nc2c(s1)C(=O)c1ccccc1C2=O	–	30.7	–	4.02	–	16.7	–	23.8	–	26.4	–	19.2	–	38.8	–	68.3	–	20.1	41.2	–
COc1ccc(/C=C/C(=O)/C=C/c2cc3ccccc3[nH]c2=O)cc1	2.41	7.69	3.24	17.6	2.8	8.92	2.87	10.9	9.73	> 100	10.6	29	4.33	18.7	3.34	12.4	1.81	3.73	9.37	3.31
COc1ccc(-c2ccncc2)cc1C(N)=O	> 25	> 25	> 25	> 25	> 25	> 25	> 25	> 25	> 25	> 25	> 25	> 25	> 25	> 25	> 25	> 25	> 25	> 25	> 25	> 25
CC[n+]1oc(C(=O)c2ccc(Cl)cc2)c(-c2ccccc2)c1-c1ccccc1.[Cl][Fe]([Cl])([Cl])[Cl]	72.6	> 100	83.6	> 100	52.5	> 100	36.5	> 100	65.7	> 100	> 100	> 100	30.4	> 100	0.462	35.1	6.63	> 100	> 100	50.7
